From patent publication US10995088B2, “Methylamine derivatives as lysysl oxidase inhibitors for the treatment of cancer” (The Institute of Cancer Research: Royal Cancer Hospital, priority 2016, dated 2021)
Structures can show the parent of a compound that is named as a salt.

Tests used:
[1] = tested on: MATN2 in MDA-MB-231 cells; assay: MATN2 level in MDA-MB-231 cells (Western blotting); format: cell-based, human; conditions: at a much higher concentration than 20 μM
Protocol: Proteins were extracted from cultured cells using cell lysis buffer (Cell Signalling Technology) with the addition of protease and phosphatase inhibitor cocktails (Pierce). Protein concentrations were measured using Pierce 660 nm protein assay reagent and SpectaMax M5 plate reader. […] Separated proteins were transferred to nitrocellulose membranes using a Trans-Blot turbo transfer system (Bio-Rad). Following blocking with Odyssey blocking buffer (Li-COR), membranes were incubated with two primary antibodies of different species at 4° C. over night. Corresponding fluorescence secondary antibodies (Li-COR) of different excitation and emission wavelengths were used to visualize the protein of interest on an Odyssey CLx infrared imaging system (Li-COR). Quantification of band fluorescent intensity was achieved using Li-COR ImageStudio. The following primary antibodies were used, anti-LOX (Sigma), anti-human MATN2 (R&D), anti-EGFR and anti-pY1068EGFR (Cell Signalling Technology), and anti-GAPDH (Millipore).
LOX inhibitors show significant reduction of MATN2 in MDA-MB-231 cells treated at 20 μM overnight.

MAO-B = MAO-B (Homo sapiens (Human), UniProt P27338); assay: Monoamine oxidase B (MAO-B) selectivity assay (MAO-Glo); format: biochemical
Sequence of MAO-B (P27338 whole entry): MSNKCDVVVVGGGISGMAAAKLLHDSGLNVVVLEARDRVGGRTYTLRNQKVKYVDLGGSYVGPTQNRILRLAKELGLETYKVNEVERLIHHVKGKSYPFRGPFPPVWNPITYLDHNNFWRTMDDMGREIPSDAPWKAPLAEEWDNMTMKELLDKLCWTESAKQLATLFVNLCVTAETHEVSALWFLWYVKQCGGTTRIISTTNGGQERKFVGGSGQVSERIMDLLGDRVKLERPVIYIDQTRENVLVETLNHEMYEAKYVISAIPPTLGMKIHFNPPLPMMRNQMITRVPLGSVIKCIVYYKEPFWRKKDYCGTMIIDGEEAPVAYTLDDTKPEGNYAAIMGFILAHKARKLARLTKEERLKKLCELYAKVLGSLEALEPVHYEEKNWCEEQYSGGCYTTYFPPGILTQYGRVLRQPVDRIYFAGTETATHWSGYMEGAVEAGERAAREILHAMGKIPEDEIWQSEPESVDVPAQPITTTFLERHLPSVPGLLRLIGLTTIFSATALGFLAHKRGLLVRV

MAO-A = MAO-A (Homo sapiens (Human), UniProt P21397); assay: Monoamine oxidase A (MAO-A) selectivity assay (MAO-Glo); format: biochemical
Sequence of MAO-A (P21397 whole entry): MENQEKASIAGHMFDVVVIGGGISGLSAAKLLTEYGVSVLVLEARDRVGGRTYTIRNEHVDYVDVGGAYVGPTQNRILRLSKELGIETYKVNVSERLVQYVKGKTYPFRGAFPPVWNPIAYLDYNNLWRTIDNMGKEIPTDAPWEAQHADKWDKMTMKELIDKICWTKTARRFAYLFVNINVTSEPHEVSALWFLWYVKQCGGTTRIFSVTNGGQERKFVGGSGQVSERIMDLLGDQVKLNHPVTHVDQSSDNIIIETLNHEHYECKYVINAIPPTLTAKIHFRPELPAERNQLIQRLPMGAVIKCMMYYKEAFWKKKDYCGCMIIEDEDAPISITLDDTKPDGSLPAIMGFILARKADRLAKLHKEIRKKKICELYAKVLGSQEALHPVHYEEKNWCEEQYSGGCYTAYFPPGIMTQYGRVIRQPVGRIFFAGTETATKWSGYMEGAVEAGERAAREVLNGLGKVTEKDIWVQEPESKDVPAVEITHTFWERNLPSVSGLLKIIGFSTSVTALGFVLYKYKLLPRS

[2] = tested on: TGF beta signalling (pSMAD2); format: cell-based; conditions: leading to MATN2 reduction
DAO = DAO (Sus scrofa, UniProt Q9TRC7); conditions: read-out: DAO IC50
Sequence of DAO (Q9TRC7 25-755 limits assumed): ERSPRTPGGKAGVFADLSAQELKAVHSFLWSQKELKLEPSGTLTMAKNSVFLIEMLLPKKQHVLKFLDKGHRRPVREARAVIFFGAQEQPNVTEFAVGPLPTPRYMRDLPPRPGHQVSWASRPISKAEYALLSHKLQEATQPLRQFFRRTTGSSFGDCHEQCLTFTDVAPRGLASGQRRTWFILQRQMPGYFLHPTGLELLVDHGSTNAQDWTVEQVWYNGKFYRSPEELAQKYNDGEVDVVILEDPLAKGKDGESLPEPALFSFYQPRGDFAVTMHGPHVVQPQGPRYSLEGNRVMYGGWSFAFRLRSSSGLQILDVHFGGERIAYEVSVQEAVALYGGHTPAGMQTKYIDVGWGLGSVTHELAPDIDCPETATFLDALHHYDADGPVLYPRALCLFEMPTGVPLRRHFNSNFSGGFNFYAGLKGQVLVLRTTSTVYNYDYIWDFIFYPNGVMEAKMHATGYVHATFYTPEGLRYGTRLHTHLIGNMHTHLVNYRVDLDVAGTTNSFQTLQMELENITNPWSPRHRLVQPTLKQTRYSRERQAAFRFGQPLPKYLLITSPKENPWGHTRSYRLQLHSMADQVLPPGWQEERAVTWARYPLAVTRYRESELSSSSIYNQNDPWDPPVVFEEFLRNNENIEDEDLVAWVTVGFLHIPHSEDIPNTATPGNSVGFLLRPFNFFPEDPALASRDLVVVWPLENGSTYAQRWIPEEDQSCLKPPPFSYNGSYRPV

in vivo [3] = conditions: female, mouse, po, 50 mg/kg
in vivo [4] = conditions: rat, po, 20 mg/kg

For `N#CCCN` [BAPN, beta-aminopropionitrile], the “reduction of MATN2” value [1] was “The same effect was seen”, the MAO-B inhibition (MAO-B) was “neither inhibits” and the MAO-A inhibition (MAO-A) was “neither inhibits”. The “TGF beta signalling as indicated by pSMAD2” value [2] was “increased”.
Compound `Cc1ccc(-c2cc(S(=O)(=O)c3ccc(CN)s3)ccc2S(C)(=O)=O)cc1` [Example 82, (5-((4′-Methyl-6-(methylsulfonyl)-[1,1′-biphenyl]-3-yl)sulfonyl)thiophen-2-yl)methanamine hydrochloride] has an IC50 (DAO) of over 100 µM and a bioavailability (in vivo [3]) of 74%.
Work on `CCc1cc(-c2ccc[n+]([O-])c2)cc(S(=O)(=O)c2cnc(CN)s2)c1` [Example 113, 3-(3-((2-(Aminomethyl)thiazol-5-yl)sulfonyl)-5-ethylphenyl)pyridine 1-oxide hydrochloride] yielded an IC50 (DAO) of over 100 µM.
For `Cn1cc(-c2cccc(S(=O)(=O)c3cnc(CN)s3)c2)cn1` [Example 116, (5-((3-(1-Methyl-1H-pyrazol-4-yl)phenyl)sulfonyl)thiazol-2-yl)methanamine], the IC50 (DAO) was over 100 µM.
With `CN(C)C(=O)c1cc(-c2ccccc2)cc(S(=O)(=O)c2cnc(CN)s2)c1` [Example 125, 5-((2-(Aminomethyl)thiazol-5-yl)sulfonyl)-N,N-dimethyl-[1,1′-biphenyl]-3-carboxamide dihydrochloride] the IC50 (DAO) was over 100 µM.
Compound `NCc1ncc(S(=O)(=O)c2cc(C(=O)O)cc(-c3ccccc3)c2)s1` [Example 126, 5-((2-(Aminomethyl)thiazol-5-yl)sulfonyl)-[1,1′-biphenyl]-3-carboxylic acid ditrifluoroacetate] has a bioavailability (in vivo [4]) of 33% and a bioavailability (in vivo [3]) of 67%.
Compound `Cn1cc(-c2cc(F)cc(S(=O)(=O)c3cnc(CN)s3)c2)cn1` [Example 131, (5-((3-Fluoro-5-(1-methyl-1H-pyrazol-4-yl)phenyl)sulfonyl)thiazol-2-yl)methanamine trihydrochloride] has an IC50 (DAO) of over 100 µM.
`Cn1cc(-c2cc(C(=O)O)cc(S(=O)(=O)c3cnc(CN)s3)c2)cn1` [Example 150, 3-((2-(Aminomethyl)thiazol-5-yl)sulfonyl)-5-(1-methyl-1H-pyrazol-4-yl)benzoic acid tihydrochloride] showed an IC50 (DAO) of over 100 µM.
